# In PubChem BioAssay (NCI):
#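 Following 48 hours of exposure in 96-well plates, responses at five concentrations were used to interpolate endpoints linearly. TGI is the concentration that stops growth completely.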
# Legend:
# Test in all cases: DTP human tumour cell line panel, 48 h
# XF 498 CNS = system: XF 498 CNS
# SNB-75 CNS = system: SNB-75 CNS
# KM12 colon = system: KM12 colon
# DMS 273 small cell lung = system: DMS 273 small cell lung
# LOX IMVI melanoma = system: LOX IMVI melanoma
# EKVX NSCLC = system: EKVX NSCLC
# SNB-78 CNS = system: SNB-78 CNS
# M14 melanoma = system: M14 melanoma
# HL-60(TB) leukemia = system: HL-60(TB) leukemia
# CAKI-1 renal = system: CAKI-1 renal
# UACC-62 melanoma = system: UACC-62 melanoma
# HCT-15 colon = system: HCT-15 colon
# SF-295 CNS = system: SF-295 CNS
# SK-MEL-5 melanoma = system: SK-MEL-5 melanoma
# U251 CNS = system: U251 CNS
# UO-31 renal = system: UO-31 renal
# K-562 leukemia = system: K-562 leukemia
# SF-539 CNS = system: SF-539 CNS
# RXF-631 renal = system: RXF-631 renal
# DMS 114 small cell lung = system: DMS 114 small cell lung
# SW-620 colon = system: SW-620 colon
# SK-OV-3 ovarian = system: SK-OV-3 ovarian
# MOLT-4 leukemia = system: MOLT-4 leukemia
# SK-MEL-2 melanoma = system: SK-MEL-2 melanoma
# OVCAR-4 ovarian = system: OVCAR-4 ovarian
# SF-268 CNS = system: SF-268 CNS
# MALME-3M melanoma = system: MALME-3M melanoma
# OVCAR-5 ovarian = system: OVCAR-5 ovarian
# TK-10 renal = system: TK-10 renal
# DLD-1 colon = system: DLD-1 colon
# RXF 393 renal = system: RXF 393 renal
# IGROV1 ovarian = system: IGROV1 ovarian
# HCC-2998 colon = system: HCC-2998 colon
# CCRF-CEM leukemia = system: CCRF-CEM leukemia
# NCI-H522 lung = system: NCI-H522 lung
# SN12C renal = system: SN12C renal
# NCI-H23 lung = system: NCI-H23 lung
# COLO 205 colon = system: COLO 205 colon
# HT29 colon = system: HT29 colon
# RPMI-8226 leukemia = system: RPMI-8226 leukemia
# SNB-19 CNS = system: SNB-19 CNS
# SK-MEL-28 melanoma = system: SK-MEL-28 melanoma
# OVCAR-8 ovarian = system: OVCAR-8 ovarian
# UACC-257 melanoma = system: UACC-257 melanoma
# A549 NSCLC = system: A549 NSCLC
# KM20L2 colon = system: KM20L2 colon
# ACHN renal = system: ACHN renal
# SR leukemia = system: SR leukemia
# 786-0 renal = system: 786-0 renal
# HOP-62 NSCLC = system: HOP-62 NSCLC
# HOP-18 NSCLC = system: HOP-18 NSCLC
# HOP-92 NSCLC = system: HOP-92 NSCLC
# LXFL 529 NSCLC = system: LXFL 529 NSCLC
# M19-MEL melanoma = system: M19-MEL melanoma
# NCI-H460 lung = system: NCI-H460 lung
# A498 renal = system: A498 renal
# OVCAR-3 ovarian = system: OVCAR-3 ovarian
# HCT-116 colon = system: HCT-116 colon
# NCI-H226 lung = system: NCI-H226 lung
smiles,measurement,setting,value
Cn1ncc2c(=O)[nH]c(-c3ccccc3)nc21,TGI,XF 498 CNS,> 100 µM
same,TGI,SNB-75 CNS,> 100 µM
same,TGI,KM12 colon,> 100 µM
same,TGI,DMS 273 small cell lung,> 100 µM
same,TGI,LOX IMVI melanoma,> 100 µM
same,TGI,EKVX NSCLC,> 100 µM
same,TGI,SNB-78 CNS,> 100 µM
same,TGI,M14 melanoma,> 100 µM
same,TGI,HL-60(TB) leukemia,> 100 µM
same,TGI,CAKI-1 renal,> 100 µM
same,TGI,UACC-62 melanoma,> 100 µM
same,TGI,HCT-15 colon,> 100 µM
same,TGI,SF-295 CNS,> 100 µM
same,TGI,SK-MEL-5 melanoma,> 100 µM
same,TGI,U251 CNS,> 100 µM
same,TGI,UO-31 renal,> 100 µM
same,TGI,K-562 leukemia,> 100 µM
same,TGI,SF-539 CNS,> 100 µM
same,TGI,RXF-631 renal,> 100 µM
same,TGI,DMS 114 small cell lung,> 100 µM
same,TGI,SW-620 colon,> 100 µM
same,TGI,SK-OV-3 ovarian,> 100 µM
same,TGI,MOLT-4 leukemia,> 100 µM
same,TGI,SK-MEL-2 melanoma,> 100 µM
same,TGI,OVCAR-4 ovarian,> 100 µM
same,TGI,SF-268 CNS,> 100 µM
same,TGI,MALME-3M melanoma,> 100 µM
same,TGI,OVCAR-5 ovarian,> 100 µM
same,TGI,TK-10 renal,> 100 µM
same,TGI,DLD-1 colon,> 100 µM
same,TGI,RXF 393 renal,> 100 µM
same,TGI,IGROV1 ovarian,> 100 µM
same,TGI,HCC-2998 colon,> 100 µM
same,TGI,CCRF-CEM leukemia,> 100 µM
same,TGI,NCI-H522 lung,> 100 µM
same,TGI,SN12C renal,> 100 µM
same,TGI,NCI-H23 lung,> 100 µM
same,TGI,COLO 205 colon,> 100 µM
same,TGI,HT29 colon,> 100 µM
same,TGI,RPMI-8226 leukemia,> 100 µM
same,TGI,SNB-19 CNS,> 100 µM
same,TGI,SK-MEL-28 melanoma,> 100 µM
same,TGI,OVCAR-8 ovarian,> 100 µM
same,TGI,UACC-257 melanoma,> 100 µM
same,TGI,A549 NSCLC,> 100 µM
same,TGI,KM20L2 colon,> 100 µM
same,TGI,ACHN renal,> 100 µM
CC(C)COC(=O)N1N=NC2C3CC(=O)C(O3)C21 (stereo unspecified),TGI,SNB-75 CNS,> 100 µM
same,TGI,KM12 colon,> 100 µM
same,TGI,SR leukemia,> 100 µM
same,TGI,DMS 273 small cell lung,> 100 µM
same,TGI,786-0 renal,> 100 µM
same,TGI,LOX IMVI melanoma,> 100 µM
same,TGI,EKVX NSCLC,> 100 µM
same,TGI,SNB-78 CNS,> 100 µM
same,TGI,M14 melanoma,> 100 µM
same,TGI,HOP-62 NSCLC,> 100 µM
same,TGI,CAKI-1 renal,> 100 µM
same,TGI,HOP-18 NSCLC,> 100 µM
same,TGI,UACC-62 melanoma,> 100 µM
same,TGI,HCT-15 colon,> 100 µM
same,TGI,SF-295 CNS,> 100 µM
same,TGI,SK-MEL-5 melanoma,> 100 µM
same,TGI,U251 CNS,> 100 µM
same,TGI,UO-31 renal,> 100 µM
same,TGI,HOP-92 NSCLC,> 100 µM
same,TGI,K-562 leukemia,> 100 µM
same,TGI,LXFL 529 NSCLC,> 100 µM
same,TGI,SF-539 CNS,> 100 µM
same,TGI,M19-MEL melanoma,> 100 µM
same,TGI,RXF-631 renal,> 100 µM
same,TGI,DMS 114 small cell lung,> 100 µM
same,TGI,SW-620 colon,> 100 µM
same,TGI,SK-OV-3 ovarian,> 100 µM
same,TGI,MOLT-4 leukemia,> 100 µM
same,TGI,SK-MEL-2 melanoma,> 100 µM
same,TGI,OVCAR-4 ovarian,> 100 µM
same,TGI,SF-268 CNS,> 100 µM
same,TGI,MALME-3M melanoma,> 100 µM
same,TGI,OVCAR-5 ovarian,> 100 µM
same,TGI,TK-10 renal,> 100 µM
same,TGI,DLD-1 colon,> 100 µM
same,TGI,RXF 393 renal,> 100 µM
same,TGI,IGROV1 ovarian,> 100 µM
same,TGI,HCC-2998 colon,> 100 µM
same,TGI,CCRF-CEM leukemia,> 100 µM
same,TGI,NCI-H522 lung,> 100 µM
same,TGI,NCI-H460 lung,> 100 µM
same,TGI,SN12C renal,> 100 µM
same,TGI,NCI-H23 lung,> 100 µM
same,TGI,COLO 205 colon,> 100 µM
same,TGI,HT29 colon,> 100 µM
same,TGI,RPMI-8226 leukemia,> 100 µM
same,TGI,A498 renal,> 100 µM
same,TGI,OVCAR-3 ovarian,> 100 µM
same,TGI,SNB-19 CNS,> 100 µM
same,TGI,SK-MEL-28 melanoma,> 100 µM
same,TGI,HCT-116 colon,> 100 µM
same,TGI,OVCAR-8 ovarian,> 100 µM
same,TGI,UACC-257 melanoma,> 100 µM
same,TGI,A549 NSCLC,> 100 µM
same,TGI,KM20L2 colon,> 100 µM
same,TGI,ACHN renal,> 100 µM
Clc1cc(Cl)cc(C2SCc3nc4ccccc4n32)c1 (stereo unspecified),TGI,SNB-75 CNS,> 100 µM
same,TGI,KM12 colon,37.3 µM
same,TGI,SR leukemia,> 100 µM
same,TGI,DMS 273 small cell lung,22.4 µM
same,TGI,786-0 renal,32.4 µM
same,TGI,EKVX NSCLC,70.8 µM
same,TGI,SNB-78 CNS,60.1 µM
same,TGI,HL-60(TB) leukemia,53.4 µM
same,TGI,CAKI-1 renal,44.2 µM
same,TGI,HOP-18 NSCLC,67.8 µM
same,TGI,UACC-62 melanoma,> 100 µM
same,TGI,SF-295 CNS,29.3 µM
same,TGI,SK-MEL-5 melanoma,25.7 µM
same,TGI,U251 CNS,34.2 µM
same,TGI,UO-31 renal,43.5 µM
same,TGI,HOP-92 NSCLC,47.2 µM
same,TGI,K-562 leukemia,25.2 µM
same,TGI,LXFL 529 NSCLC,36.3 µM
same,TGI,SF-539 CNS,23.9 µM
same,TGI,RXF-631 renal,32.9 µM
same,TGI,DMS 114 small cell lung,44.7 µM
same,TGI,SW-620 colon,33.6 µM
same,TGI,SK-OV-3 ovarian,63.8 µM
same,TGI,MOLT-4 leukemia,57.2 µM
same,TGI,SK-MEL-2 melanoma,46.1 µM
same,TGI,SF-268 CNS,59.3 µM
same,TGI,MALME-3M melanoma,62.6 µM
same,TGI,OVCAR-5 ovarian,71.4 µM
same,TGI,TK-10 renal,70.2 µM
same,TGI,RXF 393 renal,28.2 µM
same,TGI,CCRF-CEM leukemia,70.6 µM
same,TGI,NCI-H522 lung,39.3 µM
same,TGI,NCI-H460 lung,29.3 µM
same,TGI,SN12C renal,29.9 µM
same,TGI,NCI-H23 lung,45.4 µM
same,TGI,NCI-H226 lung,37.3 µM
same,TGI,COLO 205 colon,33.9 µM
same,TGI,HT29 colon,25.2 µM
same,TGI,RPMI-8226 leukemia,98.4 µM
same,TGI,OVCAR-3 ovarian,38.3 µM
same,TGI,SNB-19 CNS,66.9 µM
same,TGI,SK-MEL-28 melanoma,36.1 µM
same,TGI,OVCAR-8 ovarian,33.2 µM
same,TGI,UACC-257 melanoma,32.4 µM
same,TGI,A549 NSCLC,76.1 µM
same,TGI,ACHN renal,69 µM
CCCCCCN(CCCCCC)C1=CC(=O)C(=O)c2ccccc21,TGI,SNB-75 CNS,31.1 µM
same,TGI,KM12 colon,31.5 µM
same,TGI,SR leukemia,63.3 µM
same,TGI,DMS 273 small cell lung,34.7 µM
same,TGI,786-0 renal,30.3 µM
same,TGI,LOX IMVI melanoma,22.1 µM
same,TGI,EKVX NSCLC,27.7 µM
same,TGI,SNB-78 CNS,51.8 µM
same,TGI,M14 melanoma,32.4 µM
same,TGI,HL-60(TB) leukemia,34.6 µM
same,TGI,HOP-62 NSCLC,32.8 µM
same,TGI,CAKI-1 renal,28.6 µM
same,TGI,HOP-18 NSCLC,29.7 µM
same,TGI,UACC-62 melanoma,30.8 µM
same,TGI,HCT-15 colon,34.8 µM
same,TGI,SF-295 CNS,29.1 µM
same,TGI,SK-MEL-5 melanoma,30.9 µM
same,TGI,U251 CNS,29.3 µM
same,TGI,UO-31 renal,26.2 µM
same,TGI,HOP-92 NSCLC,28.7 µM
same,TGI,K-562 leukemia,46.4 µM
same,TGI,LXFL 529 NSCLC,33.4 µM
same,TGI,SF-539 CNS,30.9 µM
same,TGI,M19-MEL melanoma,4.99 µM
same,TGI,RXF-631 renal,38.3 µM
same,TGI,SW-620 colon,27.3 µM
same,TGI,SK-OV-3 ovarian,31.6 µM
same,TGI,MOLT-4 leukemia,51.3 µM
same,TGI,SK-MEL-2 melanoma,35.1 µM
same,TGI,OVCAR-4 ovarian,29.2 µM
same,TGI,SF-268 CNS,36.6 µM
same,TGI,MALME-3M melanoma,35.8 µM
same,TGI,OVCAR-5 ovarian,33.2 µM
same,TGI,TK-10 renal,36.1 µM
same,TGI,DLD-1 colon,32.3 µM
same,TGI,RXF 393 renal,40.5 µM
same,TGI,IGROV1 ovarian,31.1 µM
same,TGI,HCC-2998 colon,35.6 µM
same,TGI,CCRF-CEM leukemia,> 100 µM
same,TGI,NCI-H522 lung,24.2 µM
same,TGI,NCI-H460 lung,33.6 µM
same,TGI,SN12C renal,30.3 µM
same,TGI,NCI-H23 lung,27.8 µM
same,TGI,NCI-H226 lung,34.7 µM
same,TGI,COLO 205 colon,31.4 µM
same,TGI,HT29 colon,35.6 µM
same,TGI,RPMI-8226 leukemia,60.2 µM
same,TGI,A498 renal,41.6 µM
same,TGI,OVCAR-3 ovarian,14 µM
same,TGI,SNB-19 CNS,29.6 µM
same,TGI,SK-MEL-28 melanoma,31.8 µM
same,TGI,HCT-116 colon,32.9 µM
same,TGI,OVCAR-8 ovarian,29.7 µM
same,TGI,UACC-257 melanoma,28.6 µM
same,TGI,A549 NSCLC,36.5 µM
same,TGI,KM20L2 colon,37.6 µM
same,TGI,ACHN renal,30.9 µM
